Data from patent US9410182B2, “Phosphatase coupled glycosyltransferase assay” (Bio-Techne Corporation, priority 2010, dated 2016).

Key:
Format in all cases: biochemical
ST6Gal 1 = target: T1, ST6Gal 1 (Homo sapiens, UniProt P15907); assay: Sialyltransferase activity of ST6Gal 1 assayed with CD73; details: for specific activity of ST6Gal 1 against acceptor: 1 mM lactosamine or 4 mM lactose as acceptor, 1 mM CMP-NeuAc, 0.1 μg CD73
T1 construct: purchased R&D Systems
T1 sequence (P15907 1-406): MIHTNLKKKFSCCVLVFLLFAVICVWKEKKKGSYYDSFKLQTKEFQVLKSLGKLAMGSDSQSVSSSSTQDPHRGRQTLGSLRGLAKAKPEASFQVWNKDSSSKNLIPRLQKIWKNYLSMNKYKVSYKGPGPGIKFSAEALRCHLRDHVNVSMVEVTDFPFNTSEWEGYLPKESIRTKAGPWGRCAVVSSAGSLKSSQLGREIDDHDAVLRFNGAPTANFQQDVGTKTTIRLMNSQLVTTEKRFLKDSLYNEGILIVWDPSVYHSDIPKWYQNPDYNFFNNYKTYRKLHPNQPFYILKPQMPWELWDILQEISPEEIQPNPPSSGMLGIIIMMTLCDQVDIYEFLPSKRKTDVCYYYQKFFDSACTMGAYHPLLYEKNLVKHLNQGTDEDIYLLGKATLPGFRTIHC
Excerpt: (§1) The GDP-Fucose, UDP-Glucose, CMP-NeuAc, CMP, UDP and GDP used in the following experiments were obtained from Sigma-Aldrich (St Louis, Mo.). The recombinant human Fut7, ST6Gal1, CD73, CD39L3, non-specific alkaline phosphatase TNAP, recombinant Clostridium Difficile toxin B (TcdB) containing the glycosyltransferase domain and Malachite Green Phosphate Detection Kit were obtained from R&D Systems (Minneapolis, Minn.). The 3′-Sialyl-N-acetyllactosamine was obtained from V-LABS, Inc (Convington, La.). Unless otherwise specified, each glycosyltransferase reaction was performed in 50 μL of a buffer of 25 mM Tris, 150 mM NaCl, 5 mM MgCl2 and 5 mM MnCl2, at pH 7.5 in a 96-well plate at room temperature for 20 minutes. To determine kinetic parameters of each glycosyltransferase, multiple reactions with varied amounts of either glycosyltransferase or substrates were preceded simultaneously in the presence of fixed amounts of all other components, including a phosphatase. A well containing all components except glycosyltransferase served as a blank control for each example. The reactions were stopped by adding 30 μL of Malachite Reagent A and 100 μL of water to each well. The color was developed by adding 30 μL of Malachite Reagent B to each well followed by gently tapping on the edge and incubation for 30 minutes. The plate was then read at 620 nm with a multi-well plate reader.
Sialic acid is negatively charged under normal pH conditions, making sialyltransferases more difficult to assay than other glycosyltransferases. Because both the donor and product are likely negatively charged, separating them by common ion exchange chromatography separation is challenging. In this experiment, ST6Gal 1, a sialyltransferase, was assayed using 0.1 μg CD73 in a 96-well plate. First, enzyme curves were obtained with either 1 mM lactosamine or 4 mM lactose as the acceptor in the presence of 1 mM CMP-NeuAc. The results are shown in FIG. 7, and the specific activities against lactosamine and lactose were determined to be 458 and 41 pmol/min/μg respectively, confirming that the enzyme strongly favors lactosamine structure. The apparent Km and Vmax were determined for one substrate while fixing the other by fitting the data to KaleidaGraph 4 program.

CD73 = target: T2, CD73 (Homo sapiens, UniProt P21589); assay: Phosphate release from CMP by CD73, malachite green detection; details: 0.1 μg CD73, up to 10 nmol nucleotide, 15 minutes, room temperature
T2 construct: purchased R&D Systems
T2 sequence (P21589 27-549): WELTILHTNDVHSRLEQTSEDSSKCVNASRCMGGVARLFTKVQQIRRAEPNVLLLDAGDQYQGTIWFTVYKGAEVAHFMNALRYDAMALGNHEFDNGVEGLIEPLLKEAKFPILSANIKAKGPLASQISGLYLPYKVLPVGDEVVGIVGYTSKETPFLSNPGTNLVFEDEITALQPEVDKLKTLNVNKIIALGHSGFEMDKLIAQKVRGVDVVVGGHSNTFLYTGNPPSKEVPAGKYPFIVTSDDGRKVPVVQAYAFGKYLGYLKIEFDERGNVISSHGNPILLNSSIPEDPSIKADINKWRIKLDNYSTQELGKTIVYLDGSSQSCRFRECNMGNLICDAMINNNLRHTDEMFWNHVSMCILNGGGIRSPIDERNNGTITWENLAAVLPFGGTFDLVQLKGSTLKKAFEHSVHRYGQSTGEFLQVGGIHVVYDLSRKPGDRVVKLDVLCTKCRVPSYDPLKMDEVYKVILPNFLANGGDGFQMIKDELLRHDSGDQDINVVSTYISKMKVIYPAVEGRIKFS
Excerpt: as §1, with “The reactions were stopped by adding 30 μL of Malachite Reagent A and 100 μL of water to each well. The color was developed by adding 30 μL of Malachite Reagent B to each well followed by gently tapping on the edge and incubation for 30 minutes.” left out
(§2) UDP, GDP and CMP are common donors in glycosyltransferase reactions. […] In FIG. 4C, it can be seen that TNAP, at 0.1 μg level, could only quantitatively release phosphate up to 2 nmol of nucleotide input. […]

TNAP = target: T3, TNAP (Homo sapiens, UniProt P05186); assay: Phosphate release from UDP, GDP and CMP by TNAP, malachite green detection; details: 1 μg TNAP, up to 10 nmol nucleotide
T3 construct: purchased R&D Systems
T3 sequence (P05186 18-501): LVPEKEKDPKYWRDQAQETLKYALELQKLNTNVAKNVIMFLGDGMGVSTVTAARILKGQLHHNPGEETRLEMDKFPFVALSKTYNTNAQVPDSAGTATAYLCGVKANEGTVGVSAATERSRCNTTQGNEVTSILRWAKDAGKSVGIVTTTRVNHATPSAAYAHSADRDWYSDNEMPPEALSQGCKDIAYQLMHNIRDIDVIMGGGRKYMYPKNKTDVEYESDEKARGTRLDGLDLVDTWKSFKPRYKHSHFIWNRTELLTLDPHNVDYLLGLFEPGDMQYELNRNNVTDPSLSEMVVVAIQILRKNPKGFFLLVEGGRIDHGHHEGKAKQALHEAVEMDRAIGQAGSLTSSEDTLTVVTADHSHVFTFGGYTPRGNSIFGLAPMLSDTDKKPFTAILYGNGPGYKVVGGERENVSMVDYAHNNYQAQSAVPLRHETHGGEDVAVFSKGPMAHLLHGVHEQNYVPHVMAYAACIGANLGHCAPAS
Excerpt: as §1, with “The reactions were stopped by adding 30 μL of Malachite Reagent A and 100 μL of water to each well. The color was developed by adding 30 μL of Malachite Reagent B to each well followed by gently tapping on the edge and incubation for 30 minutes.” left out
as §2

CD39L3 = target: T4, CD39L3 (Homo sapiens, UniProt O75355); assay: Phosphate release from UDP and GDP by CD39L3, malachite green detection; details: 0.1 μg CD39L3, up to 10 nmol nucleotide, 15 minutes, room temperature
T4 construct: purchased R&D Systems
T4 sequence (O75355 1-529): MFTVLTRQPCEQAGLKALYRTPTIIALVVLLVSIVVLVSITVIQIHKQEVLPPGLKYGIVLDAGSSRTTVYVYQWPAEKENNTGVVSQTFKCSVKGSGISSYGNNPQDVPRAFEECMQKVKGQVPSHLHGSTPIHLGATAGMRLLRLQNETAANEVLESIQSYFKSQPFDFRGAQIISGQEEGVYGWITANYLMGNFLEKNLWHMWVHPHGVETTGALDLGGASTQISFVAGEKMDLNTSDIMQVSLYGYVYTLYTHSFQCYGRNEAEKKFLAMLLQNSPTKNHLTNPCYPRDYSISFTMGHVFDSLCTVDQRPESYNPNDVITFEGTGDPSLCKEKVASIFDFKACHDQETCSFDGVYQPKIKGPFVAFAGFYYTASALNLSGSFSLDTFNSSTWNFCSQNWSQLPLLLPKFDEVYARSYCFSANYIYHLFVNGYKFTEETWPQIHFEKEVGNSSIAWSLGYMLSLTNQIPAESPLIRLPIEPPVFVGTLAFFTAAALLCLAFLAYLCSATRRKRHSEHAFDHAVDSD
Excerpt: as §1, with “The reactions were stopped by adding 30 μL of Malachite Reagent A and 100 μL of water to each well. The color was developed by adding 30 μL of Malachite Reagent B to each well followed by gently tapping on the edge and incubation for 30 minutes.” left out
as §2

Compound | phosphate released from nucleotide by TNAP (TNAP) | phosphate released from nucleotide by CD39L3 (CD39L3) | specific activity of ST6Gal 1 against acceptor (ST6Gal 1) | further results
CC(=O)N[C@H]1[C@H]([C@H](O)[C@H](O)CO)O[C@](OP(=O)(O)OC[C@H]2O[C@@H](n3ccc(N)nc3=O)[C@H](O)[C@@H]2O)(C(=O)O)C[C@@H]1O [CMP-NeuAc, CMP-N-Acetylneuraminic acid] |  |  |  | apparent Vmax (ST6Gal 1; donor varied, lactosamine fixed at 1 mM): 710 ± 16 pmol/min/µg; Km (ST6Gal 1; donor varied, lactosamine fixed at 1 mM, read-out: apparent Km): 530 ± 40 µM
Nc1ccn([C@@H]2O[C@H](COP(=O)(O)O)[C@@H](O)[C@H]2O)c(=O)n1 [CMP] |  |  |  | dephosphorylation of nucleotide by CD73 (CD73): completely
Nc1nc2c(ncn2[C@@H]2O[C@H](COP(=O)(O)OP(=O)(O)O)[C@@H](O)[C@H]2O)c(=O)[nH]1 [GDP] | about two | one |  | 
O=c1ccn([C@@H]2O[C@H](COP(=O)(O)OP(=O)(O)O)[C@@H](O)[C@H]2O)c(=O)[nH]1 [UDP] | about two | one |  | 
N[C@H]1C(O)O[C@H](CO)[C@@H](O[C@@H]2O[C@H](CO)[C@H](O)[C@H](O)[C@H]2O)[C@@H]1O (stereo partly drawn) [lactosamine] |  |  | 458 pmol/min/µg | 
OC[C@H]1O[C@@H](O[C@H]2[C@H](O)[C@@H](O)C(O)O[C@@H]2CO)[C@H](O)[C@@H](O)[C@H]1O (stereo partly drawn) [lactose] |  |  | 41 pmol/min/µg | 
